Results: US6838479B2, “Amidine inhibitors of serine proteases” (Genentech, Inc., priority 2000, dated 2005)
Where “and” joins values, the source holds several entries; their conditions need not be identical. Equal values may be shown once.

Assays:
Assay type in all cases: biochemical
[1] = biological target: plasmin (Homo sapiens, UniProt P00747); experiment: Plasmin binding affinity; settings: read-out: binding affinity to serine proteases: plasmin
[2] = biological target: T1, trypsin (Bos taurus, UniProt P00760); experiment: Trypsin binding affinity; settings: read-out: binding affinity to serine proteases: trypsin
T1 sequence (P00760 24-246): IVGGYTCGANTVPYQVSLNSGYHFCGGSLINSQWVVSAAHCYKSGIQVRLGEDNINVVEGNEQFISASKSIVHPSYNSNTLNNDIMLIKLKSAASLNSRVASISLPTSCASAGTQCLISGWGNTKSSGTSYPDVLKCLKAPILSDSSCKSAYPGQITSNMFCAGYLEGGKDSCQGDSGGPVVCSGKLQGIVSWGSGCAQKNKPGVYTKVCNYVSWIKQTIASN

[3] = biological target: tissue factor/factor VIIa (Homo sapiens, UniProt P08709); experiment: Tissue Factor/Factor VIIa antagonist assay (chromogenic, Ki); settings: 10 nM VIIa, 30 nM TF, Chromozym-tPA 1.33 mM; read-out: binding affinity to serine proteases: VIIa
Sequence of tissue factor/factor VIIa (P08709 213-466 limits assumed): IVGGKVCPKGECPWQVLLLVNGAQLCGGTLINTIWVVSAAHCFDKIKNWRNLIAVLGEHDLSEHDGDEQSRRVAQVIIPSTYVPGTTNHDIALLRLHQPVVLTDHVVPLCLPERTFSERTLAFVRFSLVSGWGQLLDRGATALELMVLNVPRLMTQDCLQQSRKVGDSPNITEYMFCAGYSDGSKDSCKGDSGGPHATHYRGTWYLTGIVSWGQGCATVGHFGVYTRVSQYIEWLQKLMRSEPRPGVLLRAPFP
Sequence of tissue factor/factor VIIa (P08709 61-212 limits assumed): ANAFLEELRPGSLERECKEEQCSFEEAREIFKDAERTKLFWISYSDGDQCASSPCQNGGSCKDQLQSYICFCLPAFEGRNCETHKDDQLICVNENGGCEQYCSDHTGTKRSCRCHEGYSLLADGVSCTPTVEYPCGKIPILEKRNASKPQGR
Sequence of tissue factor/factor VIIa (P13726 33-251 partner limits assumed): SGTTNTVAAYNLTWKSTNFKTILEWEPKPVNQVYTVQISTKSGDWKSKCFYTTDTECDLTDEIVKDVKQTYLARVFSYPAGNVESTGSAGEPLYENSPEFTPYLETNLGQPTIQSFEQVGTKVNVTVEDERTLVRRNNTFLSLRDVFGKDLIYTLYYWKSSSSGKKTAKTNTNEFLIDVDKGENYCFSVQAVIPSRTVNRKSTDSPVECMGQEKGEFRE
Description: Tissue Factor/Factor VIIa Antagonist Assay
This procedure is used to determine the constant of inhibition (Ki) for a sample compound of the invention.
Procedure • 1. Prepare a solution of 2 μg/mL (90 nM) tissue factor and 1.5 μg/mL (30 nM) factor VIIa in assay buffer with CaCl2. • 2. Incubate for 15 minutes at room temperature. • 3. Add 50 μL sample to each well. • 4. Add 50 μL tissue factor/factor VIIa solution to each well. • 5. Incubate for 15 minutes at room temperature with gentle agitation. • 6. Add 50 μL substrate to each well. • 7. Agitate plate for 20-25 sec. • 8. Monitor absorbance at 405 nm every 10 see for a total of 5 minutes at room temperature. • 9. Calculate Vmax over 10 points.

[4] = biological target: human Plasma Kallikrein (Homo sapiens, UniProt P03952); experiment: Plasma Kallikrein assay (chromogenic, Ki); settings: 1.5 nM plasma kallikrein, S-2302 0.3 mM; read-out: binding affinity to serine proteases: kallikrein
Sequence of human Plasma Kallikrein (P03952 391-638 limits assumed): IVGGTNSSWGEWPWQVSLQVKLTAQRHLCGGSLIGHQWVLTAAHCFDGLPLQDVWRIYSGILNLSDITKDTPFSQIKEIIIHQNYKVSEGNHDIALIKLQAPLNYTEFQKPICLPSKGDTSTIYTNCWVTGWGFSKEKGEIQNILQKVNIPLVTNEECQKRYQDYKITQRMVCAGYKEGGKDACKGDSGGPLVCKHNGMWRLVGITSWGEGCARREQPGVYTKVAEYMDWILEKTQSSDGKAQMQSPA
Sequence of human Plasma Kallikrein (P03952 20-390 partner limits assumed): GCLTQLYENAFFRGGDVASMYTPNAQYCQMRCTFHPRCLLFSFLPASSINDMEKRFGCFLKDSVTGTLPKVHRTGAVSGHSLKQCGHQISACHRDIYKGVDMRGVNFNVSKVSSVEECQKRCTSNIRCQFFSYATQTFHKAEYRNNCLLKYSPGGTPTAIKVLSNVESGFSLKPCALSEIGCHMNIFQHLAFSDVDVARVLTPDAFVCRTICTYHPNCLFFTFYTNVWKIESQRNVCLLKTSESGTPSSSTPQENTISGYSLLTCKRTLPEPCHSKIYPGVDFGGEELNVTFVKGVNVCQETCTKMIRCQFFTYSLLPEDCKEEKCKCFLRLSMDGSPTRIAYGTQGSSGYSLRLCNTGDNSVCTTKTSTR
Description: (§1) Factor Xa, Thrombin, and Plasma Kallikrein Assays
(§2) These procedures are used to determine the constant of inhibition (Ki) for a sample compound of the invention.
(§3) Procedure • 1. Add 50 μL sample to each well. • 2. Add 50 μL appropriately diluted coagulation factor to each well. • 3. Incubate for 5 minutes at room temperature with gentle agitation. • 4. Add 50 μL appropriately diluted substrate to each well. • 5. Agitate plate for 20-25 sec. • 6. Monitor absorbance at 405 nm every 10 sec for a total of 5 minutes at room temperature. • 7. Calculate Vmax over 10 points.

[5] = biological target: T2, human Thrombin (Homo sapiens, UniProt P00734); experiment: Thrombin assay (chromogenic, Ki); settings: 8.2 nM thrombin, S-2266 0.3 mM; read-out: binding affinity to serine proteases: thrombin
T2 construct: rapidly converts prothrombin to thrombin
Description: as §1, §2, §3

[6] = biological target: T3, human Factor Xa (Homo sapiens, UniProt P00742); experiment: Factor Xa assay (chromogenic, Ki); settings: 3.3 nM Xa, S-2222 0.5 mM; read-out: binding affinity to serine proteases: Xa
T3 construct: This complex converts factor X to Xa
T3 sequence (P00742 235-488 limits assumed): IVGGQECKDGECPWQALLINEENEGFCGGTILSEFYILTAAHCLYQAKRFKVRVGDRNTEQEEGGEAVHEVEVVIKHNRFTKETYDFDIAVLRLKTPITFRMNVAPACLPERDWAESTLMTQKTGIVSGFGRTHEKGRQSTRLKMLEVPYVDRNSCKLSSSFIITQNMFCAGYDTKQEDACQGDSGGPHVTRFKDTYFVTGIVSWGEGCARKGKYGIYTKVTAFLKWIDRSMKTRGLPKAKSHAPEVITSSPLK
T3 sequence (P00742 41-179 limits assumed): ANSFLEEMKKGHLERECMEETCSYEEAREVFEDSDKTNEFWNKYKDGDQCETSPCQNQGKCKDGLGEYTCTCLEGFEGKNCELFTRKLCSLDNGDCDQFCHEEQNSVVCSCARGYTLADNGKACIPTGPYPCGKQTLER
Description: as §1, §2, §3

Sequence of plasmin (P00747 581-810 limits assumed, species assumed): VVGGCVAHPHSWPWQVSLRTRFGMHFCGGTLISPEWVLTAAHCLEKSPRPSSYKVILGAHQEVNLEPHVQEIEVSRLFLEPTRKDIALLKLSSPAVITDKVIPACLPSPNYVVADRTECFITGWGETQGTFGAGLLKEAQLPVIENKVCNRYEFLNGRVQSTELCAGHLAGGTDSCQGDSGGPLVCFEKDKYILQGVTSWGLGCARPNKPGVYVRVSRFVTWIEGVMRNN
Sequence of plasmin (P00747 97-580 partner limits assumed, species assumed): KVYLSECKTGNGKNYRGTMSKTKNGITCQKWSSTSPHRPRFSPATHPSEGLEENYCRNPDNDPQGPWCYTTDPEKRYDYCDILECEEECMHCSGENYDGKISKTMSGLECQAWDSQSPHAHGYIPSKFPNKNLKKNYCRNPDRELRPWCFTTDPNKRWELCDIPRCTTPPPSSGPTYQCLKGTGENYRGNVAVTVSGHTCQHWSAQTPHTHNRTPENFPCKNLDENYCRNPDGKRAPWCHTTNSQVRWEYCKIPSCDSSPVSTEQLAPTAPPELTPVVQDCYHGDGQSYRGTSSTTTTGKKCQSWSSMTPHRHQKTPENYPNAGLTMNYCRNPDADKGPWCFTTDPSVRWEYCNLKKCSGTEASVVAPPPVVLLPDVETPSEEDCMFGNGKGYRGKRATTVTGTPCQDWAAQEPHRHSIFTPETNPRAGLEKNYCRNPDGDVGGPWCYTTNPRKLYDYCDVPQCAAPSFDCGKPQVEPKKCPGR

Row | SMILES | Ki [1] [µM] | Ki [2] [µM] | Ki [3] [µM] | Ki [4] [µM] | Ki [5] [µM] | Ki [6]
1 | CCCN1C[C@H](Oc2cccc(C(=N)N)c2)C[C@H]1C(=O)Nc1ccc(C(=N)N)cc1 [compound 1] | 7.36 | 0.866 | 7.8 | 6.56 | 4.74 | 0.297 µM
2 | N=C(N)c1ccc(NC(=O)[C@@H]2C[C@@H](Oc3cccc(C(=N)N)c3)CN2Cc2ccccc2[N+](=O)[O-])cc1 [compound 5] | 7 | 2.14 | > 39 | 16 | 14.5 | 2.13 µM
3 | N=C(N)c1ccc(NC(=O)[C@@H]2C[C@@H](Oc3cccc(C(=N)N)c3)CN2C2CCCCC2)cc1 [compound 6] | 15 | 5.15 | > 39 | 3.4 | – | 2.41 µM
4 | N=C(N)c1ccc(NC(=O)[C@@H]2C[C@@H](Oc3cccc(C(=N)N)c3)CN2Cc2ccccc2[N+](=O)[O-])cc1 [compound 7] | 7 | 2.22 | > 39 | 20 | 25 | 2.49 µM
5 | COc1cc2c(cc1OC)CN(C(=O)[C@@H]1C[C@@H](Oc3cccc(C(=N)N)c3)CN1)CC2 [compound 11] | 7.36 | 0.607 | – | 0.979 | 0.875 | 5.84 µM
6 | CC(=O)N1C[C@H](Oc2cccc(C(=N)N)c2)C[C@H]1C(=O)Nc1ccc(C(=N)N)cc1 [compound 14] | > 24.5 | 10.1 | > 39 | – | > 36.2 | 6.61 µM
7 | CN(Cc1ccccc1)C(=O)[C@@H]1C[C@@H](Oc2cccc(C(=N)N)c2)CN1Cc1ccccc1 [compound 15] | 15.4 | 2.26 | 156 | 34.2 | 11 | 6.8 µM
8 | CCCCCCN1C[C@H](Oc2cccc(C(=N)N)c2)C[C@H]1C(=O)Nc1ccc(C(=N)N)cc1 [compound 16] | 12 | 6.07 | > 39 | 17 | 29 | 6.81 µM
9 | N=C(N)c1cccc(O[C@@H]2C[C@@H](C(=O)Nc3ccc(Cl)cc3)N(C(=O)c3ccccc3)C2)c1 [compound 17] | – | 3.6 | > 39 | > 33.8 | – | 7.88 µM
10 | N=C(N)c1cccc(O[C@@H]2C[C@@H](C(=O)N3CCc4ccccc4C3)N(S(=O)(=O)c3ccccc3)C2)c1 [compound 21] | – | 20.2 | > 39 | – | 14.5 | 10.5 µM
11 | N=C(N)c1ccc(NC(=O)[C@@H]2C[C@@H](Oc3cccc(C(=N)N)c3)CN2Cc2ccc([N+](=O)[O-])cc2)cc1 [compound 22] | 15 | 7.76 | > 39 | 3.4 | > 36 | 10.5 µM
12 | C=CCOC(=O)[C@@H]1C[C@@H](Oc2cccc(C(=N)N)c2)CN1 [compound 27] | > 24.6 | 14.1 | 15.6 | – | – | 14 µM
13 | N=C(N)c1cccc(O[C@@H]2C[C@@H](C(=O)N3CCc4ccccc4C3)N(C(=O)c3ccccc3)C2)c1 [compound 32] | – | 7.84 | > 399 | – | – | 15.3 µM
14 | C=CCOC(=O)[C@@H]1C[C@@H](Oc2cccc(C(=N)N)c2)CN1C(=O)c1ccccc1 [compound 36] | – | 4.26 | – | > 33.8 | 21.7 | 19.9 µM and 14 µM
15 | CS(=O)(=O)N1C[C@H](Oc2cccc(C(=N)N)c2)C[C@H]1C(=O)Nc1ccc(Cl)cc1 [compound 52] | > 24.5 | 40.5 | > 39 | 27 | > 36.2 | –
16 | C=CCOC(=O)[C@@H]1C[C@@H](Oc2cccc(C(=N)N)c2)CN1Cc1ccccc1 [compound 60] | – | 4.99 | – | – | – | –
17 | C=CCOC(=O)[C@@H]1C[C@@H](Oc2cccc(C(=N)N)c2)CN1C(C)=O [compound 76] | > 24.5 | 30.3 | – | > 33.8 | > 36.2 | –
18 | N=C(N)c1cccc(O[C@H]2CN[C@H](C(=O)Nc3ccccc3)C2)c1 [compound 79] | 24 | 20 | 19 | – | > 36 | > 35 µM
19 | COC(=O)[C@@H]1C[C@@H](Oc2cccc(C(=N)N)c2)CN1 [compound 80] | > 24.6 | 28.3 | > 39 | 55 | > 36.2 | > 35.1 µM
